Five compounds from ChEMBL document CHEMBL3751697, “Enantiomeric 3-deaza-1',6'-isoneplanocin and its 3-bromo analogue: Synthesis by the Ullmann reaction and their antiviral properties” (Bioorg Med Chem Lett, 2016) can be followed below.

Active and inactive are the calls of the source. The calls are words filed in the database; no cut-off is given here.

As a reminder, the EC50 is the concentration giving half of the maximal effect. One may read the CC50 as the concentration that lowers cell viability or growth by half. One may read the EC90 as the concentration needed for an effect of 90%.

One data set concerns Yellow fever virus. Nature of the data set: Antiviral activity against Yellow fever virus. The data set is classed as functional, organism-based.
The subject of a further data set is Hepatitis C virus. Nature of the data set: Antiviral activity against Hepatitis C virus. The class given is functional, organism-based. As to conditions: Hepacivirus hominis.
The test system of a further data set is Chikungunya virus. Nature of the data set: Antiviral activity against Chikungunya virus. The class given is functional.
Another data set concerns Hepatitis B virus. Nature of the data set: Antiviral activity against Hepatitis B virus. The data set is classed as functional, organism-based.
Data set [1] relates to Japanese encephalitis virus. Nature of the data set: Antiviral activity against Japanese encephalitis virus. The data set is classed as functional, organism-based.
In the next data set the test system is Measles morbillivirus. Nature of the data set: Antiviral activity against Measles virus. The class given is functional, organism-based.
Data set [2] relates to Ebolavirus. Nature of the data set: Antiviral activity against Zaire ebolavirus infected in African monkey Vero cells. The data set is classed as functional, cell-based. As to conditions: Orthoebolavirus.
A further data set deals with Dengue virus. Nature of the data set: Antiviral activity against Dengue virus. The data set is classed as functional, organism-based.
Data set [3] in a line: Selectivity index, ratio of CC50 for African monkey Vero cells to EC50 for Zaire ebolavirus. The class given is toxicity, cell-based. The note with it: read-out: Ratio CC50/EC50.
The nature of data set [4]: Cytotoxicity against African monkey Vero cells. The data set is classed as cell-based. As to conditions: chlorocebus sabaeus.
Another data set deals with Norovirus. Nature of the data set: Antiviral activity against Norovirus. The class given is functional.
For the next data set, the system named is Rift Valley fever virus. Nature of the data set: Antiviral activity against Rift Valley fever virus. The data set is classed as functional, organism-based.
A further data set has as its system Nipah virus. Nature of the data set: Antiviral activity against Nipah virus. The data set is classed as functional, organism-based. The note with it: Henipavirus nipahense.
In the next data set the test system is Human betaherpesvirus 5. Nature of the data set: Antiviral activity against Human cytomegalovirus. The data set is classed as functional, organism-based.
Another data set concerns Tacaribe virus. Nature of the data set: Antiviral activity against Tacaribe virus. As to conditions: Mammarenavirus tacaribeense. The data set is classed as functional, organism-based.
Data set [5] in a line: Selectivity index, ratio of CC50 for human HepG2 cells to EC50 for Zaire ebolavirus. The data set is classed as toxicity, cell-based. The note with it: read-out: Ratio CC50/EC50.
In data set [6] the test system is Ebolavirus. Nature of the data set: Antiviral activity against Zaire ebolavirus infected in human HepG2 cells. The data set is classed as functional, cell-based. The note with it: Orthoebolavirus.
Data set [7] is described as follows: Cytotoxicity against human HepG2 cells. The class given is cell-based.
A further data set deals with Vaccinia virus. Nature of the data set: Antiviral activity against Vaccinia virus. The data set is classed as functional, organism-based. As to conditions: Orthopoxvirus vaccinia.
Another data set relates to Punta Toro virus. Nature of the data set: Antiviral activity against Punta Toro virus. The class given is functional, organism-based.
Data set [8] concerns Venezuelan equine encephalitis virus. Nature of the data set: Antiviral activity against Venezuelan equine encephalitis virus. The data set is classed as functional, organism-based.
In the next data set the test system is Monkeypox virus. Nature of the data set: Antiviral activity against Monkeypox virus. The class given is functional, organism-based.
The test system of a further data set is West Nile virus. Nature of the data set: Antiviral activity against West Nile virus. The class given is functional, organism-based.
The test system of the next data set is Enterovirus C. Nature of the data set: Antiviral activity against Poliovirus. The data set is classed as functional, organism-based.
In the next data set the test system is Lyssavirus rabies. Nature of the data set: Antiviral activity against Rabies virus. The data set is classed as functional.

With `Nc1ncc(Br)c2c1ncn2C1=C[C@@H](CO)[C@H](O)[C@@H]1O`, the result (in the data set with Yellow fever virus; in the data set on Hepatitis C virus; in the data set with Chikungunya virus; in data set [1]; in the data set with Dengue virus; in the data set with Rift Valley fever virus) was inactive. In addition, the outcome in the data set with Nipah virus and with Tacaribe virus was inactive. Also, the EC50 with Hepatitis B virus is 3.25 µM; in the data set with Measles morbillivirus, below 0.29 µM; in the data set with Ebolavirus [2] it was 3.51 µM; with Norovirus it was 1.3 µM; in the data set on Human betaherpesvirus 5, below 0.1 µM. In addition, the selectivity ratio in data set [3] is above 28.5. This compound also yielded a cytotoxic concentration (CC50) in data set [4] above 100 µM.
Take `Nc1ncc(Br)c2c1ncn2[C@@H]1C=C(CO)[C@@H](O)[C@H]1O`: the selectivity ratio in data set [5] is above 67. Besides, in the data set on Ebolavirus [6], the EC50 was below 0.32 µM and the EC90 was found to be 3.02 µM. Besides, the CC50 in data set [7] was found to be 21.1 µM.
Take `Nc1ncc(Br)c2c1ncn2C1=C[C@H](CO)[C@@H](O)[C@H]1O`: the outcome (with Yellow fever virus; in the data set on Hepatitis C virus; in the data set with Chikungunya virus; in data set [1]; with Dengue virus; with Rift Valley fever virus) was inactive. In addition, the outcome with Nipah virus and with Tacaribe virus was inactive. Also, the EC50 in the data set on Measles morbillivirus is below 0.29 µM; in the data set with Ebolavirus [2], below 0.1 µM; in the data set with Human betaherpesvirus 5 it was below 0.1 µM. In addition, the selectivity ratio in data set [3] is above 1000. Further, in data set [4], the half-maximal cytotoxic concentration (CC50) was above 100 µM.
As to `Nc1nccc2c1ncn2C1=C[C@@H](CO)[C@H](O)[C@@H]1O`, the result (in the data set with Vaccinia virus; in the data set on Measles morbillivirus; with Punta Toro virus; in [8]; in the data set with Monkeypox virus; in the data set on West Nile virus) was inactive. Further, the outcome in the data set on Enterovirus C and in the data set with Lyssavirus rabies was inactive. Besides, the results for the EC50 in the data set with Ebolavirus [6] and in the data set on Human betaherpesvirus 5 were below 0.32 µM and below 0.1 µM, respectively. This compound also yielded an EC90 in the data set on Ebolavirus [6] below 0.32 µM. The compound further returned a CC50 in data set [7] above 100 µM.
In the case of `Nc1nccc2c1ncn2C1=C[C@H](CO)[C@@H](O)[C@H]1O`, the outcome (in the data set with Vaccinia virus; in the data set on Punta Toro virus; in data set [8]; in the data set with Monkeypox virus; in the data set with West Nile virus; in the data set on Enterovirus C) was inactive. Also, the outcome in the data set with Lyssavirus rabies was inactive. Moreover, the EC50 with Measles morbillivirus was below 0.38 µM; in the data set on Ebolavirus [6], below 0.32 µM; in the data set with Human betaherpesvirus 5, below 0.1 µM. This compound registered an EC90 with Ebolavirus [6] of 74.1 µM. The CC50 in data set [7] is above 100 µM.
